Experiments:
estrogen biosynthesis [1] = test: In vivo inhibition of estrogen biosynthesis; design: species or system rat
estrogen biosynthesis [2] = test: In vitro inhibition of estrogen biosynthesis; type: biochemical
estrogen biosynthesis [3] = details: Endocrinology 92, 866 (1973); Endocrinology 100, 1684 (1977); cited from earlier work
[4] = Polarity by thin layer chromatography; type: physicochemical; details: compared with 4-acetate-4-A
[5] = Release of compound from skin implant in rat studies; type: in vivo
[6] = tested on: implantation in mated rats; test: In vivo effect on implantation in mated rats; design: species or system rat; details: 7 mated rats; 100 mg/kg daily by injection from Day 2 of pregnancy
Experimental: Injections of 4-acetate-4-A in a suspending vehicle were begun at 0800 hr on Day 2 of pregnancy, and repeated thereafter at […], and at 2400 hr as 2/6 daily dose. The daily does was 100 mg of 4-acetate-4-A per kg of body weight. Control animals were treated the same except that only the suspending vehicle was injected.

[7] = tested on: Estrogen-dependent mammary tumors; test: In vivo effect on DMBA-induced estrogen-dependent mammary tumors in rats; design: species or system rat; details: after 4 weeks, wafer with 150 mg plus sc 2.5 mg/100 g twice daily
Experimental: Estrogen-dependent mammary tumors where induced in rats with DMBA. Prior to treatment the 7 sample group rats had 23 tumors; the 6 control group rats had 17 tumors. During the initial treatment period the number of tumors increased to 28 for the sample group, 24 for the control group.
The sample group was treated with implanted wafers containing 0.5 g silastic and 150 mg 4-acetate-4-A. The sample group was also treated twice daily for 4 weeks with sc injections of 4-acetate-4-A (2.5 mg/100 g animal) in a suspending vehicle. The control was treated the same except that 4-acetate-4-A was omitted from the wafers and the injection.

mating in rats = test: In vivo effect on mating in rats (silastic wafer implant); design: species or system rat; details: 8 female rats
Experimental: Female rats showing at least 2 consecutive 4-day cycles were used. On the day of diestrus I, a silastic wafer, was inserted under the dorsal skin of each rat. The wafer, about 25 mm in diameter and 1 mm thick, was prepared by polymerizing 0.5 g of Corning medical grade Silastic 382 with 75 mg 4-acetate-4-A, using stannous octoate catalyst. Each female was housed with 2 fertile males until mating occurred. Control animals were treated with same except that 4-acetate-4-A was omitted from the wafer.

Compound: CC12CCC3C(CCC4=C(OC(=O)CCC(=O)O)C(=O)CCC43C)C1CCC2=O (stereo not shown) [4-hemisuccinate-4-A]
- ability to inhibit estrogen biosynthesis (in vivo) (estrogen biosynthesis [1]; in vivo): marked ability to inhibit estrogen biosynthesis
- ability to inhibit estrogen biosynthesis (in vitro) (estrogen biosynthesis [2]): marked ability to inhibit estrogen biosynthesis

Compound: C[C@]12CCC(=O)C(O)=C1CC[C@@H]1[C@@H]2CC[C@]2(C)C(=O)CC[C@@H]12 [4-OH-4-A, 4-hydroxy-4-androstene-3,17-dione]
- inhibition of estrogen biosynthesis (literature) (estrogen biosynthesis [3]): effective inhibitor of estrogen biosynthesis
- polarity (thin layer chromatography) [4]: less polar than 4-acetate-4-A
- diffusion / release from skin implant [5]: does not diffuse as well from the implant

Compound: C[C@]12CC[C@H]3[C@@H](CCC4=CC(=O)CC[C@@H]43)[C@@H]1CCC2=O [4-estrene-3,17-dione]
- inhibition of estrogen biosynthesis (literature) (estrogen biosynthesis [3]): effective inhibitors of estrogen biosynthesis

Compound: CCCCCCC(=O)OC1=C2CCC3C4CCC(=O)C4(C)CCC3C2(C)CCC1=O (stereo not shown) [4-heptanoate-4-A]
- ability to inhibit estrogen biosynthesis (in vitro) (estrogen biosynthesis [2]): This expectation has been borne out

Compound: CC(=O)OC1=C2CCC3C4CCC(=O)C4(C)CCC3C2(C)CCC1=O (stereo not shown) [4-acetate-4-A]
- ovarian estrogen secretion (estrogen biosynthesis [1]; in vivo rat studies): lower ovarian estrogen secretion
- Animals without implants [6]: 4
- Average number of normal-sized implants/animal [6]: 1.7
- Average number of small (<2.4 mm) implants/animal [6]: 1.4
- Number of animals affected by treatment [6]: 7
- tumors completely regressed [7]: 64%
- tumors regressed to less than 1/2 their pretreatment size ([7]; in addition to those completely regressed): 32%
- diffusion / release from skin implant [5]: continuous, uniform release
- Number of animals mating on a given day: 1st (mating in rats; 1st day, silastic wafer with 75 mg 4-acetate-4-A under dorsal skin): 0
- Number of animals mating on a given day: 6th (mating in rats; 6th day, silastic wafer with 75 mg): 2
- Number of animals mating on a given day: 7th (mating in rats; 7th day, silastic wafer with 75 mg): 2
- Number of animals mating on a given day: 15th day (mating in rats; 15th day, silastic wafer with 75 mg): 3
- Number of animals mating on a given day: 2d (mating in rats; 2d day, silastic wafer with 75 mg): 1

Compound: C[C@]12CCC(=O)C=C1C(=O)C[C@@H]1[C@@H]2CC[C@]2(C)C(=O)CC[C@@H]12 (stereo in doubt) [4-androstene-3,6,17-trione]
- inhibition of estrogen biosynthesis (literature) (estrogen biosynthesis [3]): effective inhibitors of estrogen biosynthesis

Compound: C[C@]12C=CC(=O)C=C1C=C[C@@H]1[C@@H]2CC[C@]2(C)C(=O)CC[C@@H]12 [1,4,6-androstatriene-3,17-dione]
- inhibition of estrogen biosynthesis (literature) (estrogen biosynthesis [3]): effective inhibitors of estrogen biosynthesis
